# Data as given in ChEMBL document CHEMBL5678816, “A Next-Generation TRK Kinase Inhibitor Overcomes Acquired Resistance to Prior TRK Kinase Inhibition in Patients with TRK Fusion-Positive Solid Tumors” (Cancer Discov, 2017).
# Calls of active or inactive are those of the source. The rule behind the calls is not given here.
# Key:
# [1] = Toxicity in nu/nu NCr mouse xenografted with human KM12 cells harboring TPM3-TRKA fusion protein assessed as body weight loss at 60 mg/kg, po administered once daily for 11 days relative to control; type: organism-based; settings: in vivo, 264 h, time 11 day
# NIH3T3 [2] = experiment: In vivo inhibition of […] in nu/nu NCr mouse implanted with mouse NIH3T3 cells harboring extracellular domain deleted […] assessed as reduction in […] phosphorylation at 60 mg/kg, po administered once daily for 3 days and measured after 2 hrs post last dose by ELISA; type: functional, organism-based; settings: time 3.0 day
# [3] = Inhibition of human extracellular domain deleted TRKA V573M mutant expressed in mouse NIH3T3 cells assessed as reduction in TRKA phosphorylation incubated for 1 hrs by ELISA; type: cell-based; settings: NIH3T3, 1 h
# [4] = Inhibition of N-terminal 3FLAG-tagged ETV6-TRKC G623R mutant (unknown origin) expressed in NIH3T3 cells assessed as ERK1/2 phosphorylation incubated for 1 hrs by flow cytometric analysis; type: cell-based, Homo sapiens
# KM12 = experiment: Antitumor activity against human KM12 cells harboring TPM3-TRKA fusion protein xenografted in nu/nu NCr mouse assessed as inhibition of tumor growth at 60 mg/kg, po administered once daily for 11 days; type: functional, organism-based; settings: time 11.0 day
# [5] = Inhibition of N-terminal 3FLAG-tagged ETV6-TRKC G696A mutant (unknown origin) expressed in NIH3T3 cells assessed as ERK1/2 phosphorylation incubated for 1 hrs by flow cytometric analysis; type: cell-based, Homo sapiens
# [6] = Inhibition of N-terminal 3FLAG-tagged wild type ETV6-TRKC (unknown origin) expressed in NIH3T3 cells assessed as ERK1/2 phosphorylation incubated for 1 hrs by flow cytometric analysis; type: cell-based, Homo sapiens
# [7] = Inhibition of N-terminal 6His-tagged TRKC G696A mutant (506 to 829 residues) (unknown origin) expressed in Escherichia coli incubated for 60 mins by [gamma-33P]-ATP based TopCount NXT liquid scintillation assay; parameters: species or system Homo sapiens
# NIH3T3 [8] = experiment: Antitumor activity against mouse NIH3T3 cells harboring extracellular domain deleted TRKA implanted in nu/nu NCr mouse assessed as inhibition of tumor growth at 60 mg/kg, po administered once daily for 10 days; type: functional, organism-based; settings: time 10.0 day
# [9] = Toxicity in nu/nu NCr mouse implanted with mouse NIH3T3 cells harboring extracellular domain deleted TRKA G595R mutant assessed as body weight loss at 60 mg/kg, po administered once daily for 12 days relative to control; type: organism-based; settings: in vivo, 288 h, time 12 day
# [10] = Inhibition of human extracellular domain deleted TRKA G667S mutant expressed in mouse NIH3T3 cells assessed as reduction in TRKA phosphorylation incubated for 1 hrs by ELISA; type: cell-based; settings: NIH3T3, 1 h
# [11] = Toxicity in nu/nu NCr mouse implanted with mouse NIH3T3 cells harboring extracellular domain deleted TRKA assessed as body weight loss at 60 mg/kg, po administered once daily for 10 days relative to control; type: organism-based; settings: in vivo, 240 h, time 10 day
# NIH3T3 [12] = experiment: In vivo inhibition of […] in nu/nu NCr mouse implanted with mouse NIH3T3 cells harboring extracellular domain deleted […] assessed as reduction in […] phosphorylation at 10 to 100 mg/kg, po administered twice daily for 3 days and measured after 2 hrs post last dose by ELISA; type: functional, organism-based; settings: dose 10-100 mg/kg, time 3.0 day
structure (smiles),measurement,setting,value
O=C(Nc1cnn2ccc(N3CCC[C@@H]3c3cc(F)ccc3F)nc12)N1CC[C@H](O)C1 [LAROTRECTINIB],Activity,[1],< 5%
same,inhibition,NIH3T3 [2],Active
same,IC50,[3],1020 nM
same,IC50,[4],> 10000 nM
same,Activity,KM12,Active
same,IC50,[5],172 nM
same,IC50,[6],18.8 nM
same,IC50,[7],4.5 nM
same,Activity,NIH3T3 [8],Active
same,Activity,[9],< 5%
same,IC50,[10],70 nM
same,Activity,[11],< 5%
same,inhibition,NIH3T3 [12],Active
